± gives the expanded uncertainty stated by the source.
Test: molar heat capacity at constant pressure
Conditions: 101.33 kPa, Crystal 2, Small sample (50 mg) DSC

O=[Si]=O [silicon dioxide]
Conditions | molar heat capacity at constant pressure [J/K/mol]
285 K | 43.21 ± 0.7
290 K | 43.7 ± 0.71
295 K | 44.22 ± 0.72
300 K | 44.74 ± 0.72
305 K | 45.21 ± 0.72
310 K | 45.69 ± 0.73
315 K | 46.16 ± 0.74
320 K | 46.62 ± 0.75
325 K | 47.09 ± 0.76
330 K | 47.56 ± 0.76
335 K | 48.02 ± 0.76
340 K | 48.49 ± 0.77
345 K | 48.94 ± 0.78
350 K | 49.39 ± 0.78
355 K | 49.78 ± 0.79
360 K | 50.22 ± 0.8
365 K | 50.62 ± 0.8
370 K | 51.02 ± 0.81
375 K | 51.38 ± 0.81
380 K | 51.76 ± 0.81
385 K | 52.15 ± 0.82
390 K | 52.52 ± 0.82
395 K | 52.89 ± 0.83
400 K | 53.25 ± 0.84
405 K | 53.61 ± 0.84
410 K | 53.99 ± 0.85
415 K | 54.34 ± 0.86
420 K | 54.7 ± 0.86
425 K | 55.03 ± 0.86
430 K | 55.38 ± 0.87
435 K | 55.74 ± 0.87
440 K | 56.07 ± 0.88
445 K | 56.42 ± 0.88
450 K | 56.75 ± 0.89
455 K | 57.1 ± 0.9
460 K | 57.4 ± 0.9
465 K | 57.69 ± 0.9
470 K | 58.01 ± 0.91
475 K | 58.29 ± 0.91
480 K | 58.59 ± 0.91
485 K | 58.87 ± 0.91
490 K | 59.12 ± 0.92
495 K | 59.37 ± 0.92
500 K | 59.63 ± 0.93
505 K | 59.91 ± 0.93
510 K | 60.16 ± 0.94
515 K | 60.41 ± 0.94
520 K | 60.66 ± 0.95
525 K | 60.91 ± 0.95
530 K | 61.15 ± 0.96
535 K | 61.41 ± 0.96
540 K | 61.66 ± 0.96
545 K | 61.92 ± 0.96
550 K | 62.19 ± 0.97
555 K | 62.45 ± 0.97
560 K | 62.73 ± 0.98
565 K | 63.01 ± 0.98
570 K | 63.26 ± 0.98
575 K | 63.49 ± 0.99
580 K | 63.74 ± 0.99
585 K | 64.01 ± 1
590 K | 64.24 ± 1
595 K | 64.46 ± 1
600 K | 64.69 ± 1
605 K | 64.89 ± 1
610 K | 65.09 ± 1
615 K | 65.3 ± 1
620 K | 65.5 ± 1
625 K | 65.73 ± 1
630 K | 65.97 ± 1
635 K | 66.17 ± 1
640 K | 66.38 ± 1
645 K | 66.62 ± 1
650 K | 66.84 ± 1
655 K | 67.01 ± 1
660 K | 67.18 ± 1
665 K | 67.38 ± 1
670 K | 67.57 ± 1
675 K | 67.75 ± 1.1
680 K | 67.94 ± 1.1
685 K | 68.16 ± 1.1
690 K | 68.35 ± 1.1
695 K | 68.56 ± 1.1
700 K | 68.75 ± 1.1
705 K | 68.95 ± 1.1
710 K | 69.14 ± 1.1
715 K | 69.35 ± 1.1
720 K | 69.58 ± 1.1
725 K | 69.69 ± 1.1
730 K | 69.83 ± 1.1
735 K | 70 ± 1.1
740 K | 70.22 ± 1.1
745 K | 70.45 ± 1.1
750 K | 70.72 ± 1.1
755 K | 71 ± 1.1
760 K | 71.26 ± 1.1
780.95 K | 71.65 ± 1.1
781.12 K | 71.67 ± 1.2
781.28 K | 71.59 ± 1.1
781.45 K | 71.55 ± 1.2
781.61 K | 71.6 ± 1.2
781.78 K | 71.49 ± 1.1
781.94 K | 71.36 ± 1.1
782.11 K | 71.45 ± 1.1
782.28 K | 71.45 ± 1.1
782.45 K | 71.54 ± 1.1
782.62 K | 71.57 ± 1.1
782.78 K | 71.51 ± 1.1
782.95 K | 71.6 ± 1.1
783.12 K | 71.5 ± 1.1
783.28 K | 71.3 ± 1.1
783.45 K | 71.26 ± 1.1
783.62 K | 71.08 ± 1.1
783.78 K | 71.24 ± 1.1
783.95 K | 71.41 ± 1.1
784.12 K | 71.45 ± 1.1
784.28 K | 71.52 ± 1.1
784.45 K | 71.54 ± 1.1
784.62 K | 71.49 ± 1.1
784.78 K | 71.52 ± 1.1
784.95 K | 71.46 ± 1.1
785.12 K | 71.45 ± 1.1
785.28 K | 71.49 ± 1.1
785.45 K | 71.49 ± 1.1
785.62 K | 71.49 ± 1.1
785.79 K | 71.54 ± 1.1
785.95 K | 71.6 ± 1.1
786.12 K | 71.72 ± 1.1
786.29 K | 71.77 ± 1.1
786.45 K | 71.65 ± 1.1
786.62 K | 71.5 ± 1.1
786.78 K | 71.36 ± 1.1
786.95 K | 71.21 ± 1.1
787.12 K | 71.35 ± 1.1
787.29 K | 71.46 ± 1.1
787.46 K | 71.52 ± 1.1
787.62 K | 71.51 ± 1.1
787.78 K | 71.6 ± 1.1
787.95 K | 71.68 ± 1.1
788.12 K | 71.69 ± 1.1
788.28 K | 71.59 ± 1.1
788.45 K | 71.56 ± 1.1
788.62 K | 71.65 ± 1.1
788.79 K | 71.81 ± 1.1
788.95 K | 71.75 ± 1.1
789.12 K | 71.7 ± 1.1
789.29 K | 71.78 ± 1.1
789.45 K | 71.82 ± 1.1
789.62 K | 71.7 ± 1.1
789.79 K | 71.66 ± 1.1
789.95 K | 71.68 ± 1.1
790.12 K | 71.65 ± 1.1
790.28 K | 71.4 ± 1.1
790.45 K | 71.28 ± 1.1
790.62 K | 71.32 ± 1.1
790.78 K | 71.49 ± 1.1
790.95 K | 71.6 ± 1.1
791.12 K | 71.65 ± 1.1
791.29 K | 71.82 ± 1.1
791.45 K | 71.83 ± 1.1
791.62 K | 71.77 ± 1.1
791.79 K | 71.7 ± 1.1
791.95 K | 71.64 ± 1.1
792.12 K | 71.58 ± 1.1
792.29 K | 71.65 ± 1.1
792.45 K | 71.69 ± 1.1
792.61 K | 71.77 ± 1.1
792.78 K | 71.83 ± 1.1
792.95 K | 71.78 ± 1.1
793.12 K | 71.69 ± 1.1
793.28 K | 71.67 ± 1.1
793.45 K | 71.75 ± 1.1
793.61 K | 71.63 ± 1.1
793.78 K | 71.65 ± 1.1
793.95 K | 71.8 ± 1.1
794.12 K | 71.75 ± 1.1
794.29 K | 71.74 ± 1.1
794.45 K | 71.73 ± 1.1

Reference: the NIST ThermoML archive (doi:10.1016/j.jct.2018.01.019)
